# In patent US11945822B2, “Pyrazolo-triazine and/or pyrazolo-pxrimidine derivatives as selective inhibitor of cyclin dependent kinase” (QURIENT CO., LTD., priority 2018, dated 2024):
# How the values were obtained:
# [1] = biological target: T1, CDK7/Cyclin H/MNAT1 (Homo sapiens, UniProt P50613); assay: Enzymatic assay for CDK7 (FRET based LANCE Ultra kinase assay); assay type: biochemical; details: for IC50: read-out: CDK7 enzymatic activity (IC50 range)
# T1 construct: purchased Invitrogen PR6749B
# T1 sequence (P50613 whole entry): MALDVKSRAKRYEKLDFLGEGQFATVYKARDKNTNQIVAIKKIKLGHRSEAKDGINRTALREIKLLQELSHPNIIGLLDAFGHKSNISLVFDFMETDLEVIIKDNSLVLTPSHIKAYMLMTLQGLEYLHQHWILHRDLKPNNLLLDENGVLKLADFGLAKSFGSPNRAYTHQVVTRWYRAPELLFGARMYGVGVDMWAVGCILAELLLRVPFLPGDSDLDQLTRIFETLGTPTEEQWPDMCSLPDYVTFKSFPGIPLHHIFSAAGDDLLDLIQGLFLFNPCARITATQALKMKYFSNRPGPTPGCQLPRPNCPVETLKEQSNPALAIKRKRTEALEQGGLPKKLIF
# T1 sequence (P51946 whole entry partner): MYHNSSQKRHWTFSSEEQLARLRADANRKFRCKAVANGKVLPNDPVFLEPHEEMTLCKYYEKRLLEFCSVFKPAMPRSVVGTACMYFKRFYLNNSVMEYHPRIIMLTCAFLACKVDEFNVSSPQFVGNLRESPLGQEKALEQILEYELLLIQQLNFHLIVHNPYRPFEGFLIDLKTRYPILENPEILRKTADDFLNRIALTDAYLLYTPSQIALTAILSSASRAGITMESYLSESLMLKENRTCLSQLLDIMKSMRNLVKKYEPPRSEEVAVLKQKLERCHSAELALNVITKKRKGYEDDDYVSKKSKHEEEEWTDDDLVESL
# T1 sequence (P51948 whole entry partner): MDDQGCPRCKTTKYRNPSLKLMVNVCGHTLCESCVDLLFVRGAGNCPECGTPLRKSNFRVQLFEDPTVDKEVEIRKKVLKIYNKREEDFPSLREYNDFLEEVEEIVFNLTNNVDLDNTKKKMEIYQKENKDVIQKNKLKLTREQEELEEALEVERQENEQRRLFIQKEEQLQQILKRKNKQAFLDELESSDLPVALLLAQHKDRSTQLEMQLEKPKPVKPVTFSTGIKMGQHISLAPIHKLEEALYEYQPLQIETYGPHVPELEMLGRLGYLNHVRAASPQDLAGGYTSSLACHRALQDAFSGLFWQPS
# Summary of the method: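 Inhibition was measured at Km ATP by time-resolved FRET between a Eu anti-phospho antibody and a phosphorylated ULight peptide. The enzyme was the purified CDK7/cyclin complex, and data were curve-fitted.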
# [2] = biological target: T2, CDK5/p25 (Homo sapiens, UniProt Q00535); assay: Enzymatic assay for CDK5 (FRET based LANCE Ultra kinase assay); assay type: biochemical; details: read-out: CDK5 enzymatic activity (IC50 range)
# T2 construct: purchased Invitrogen PR8543B
# T2 sequence (Q00535 whole entry): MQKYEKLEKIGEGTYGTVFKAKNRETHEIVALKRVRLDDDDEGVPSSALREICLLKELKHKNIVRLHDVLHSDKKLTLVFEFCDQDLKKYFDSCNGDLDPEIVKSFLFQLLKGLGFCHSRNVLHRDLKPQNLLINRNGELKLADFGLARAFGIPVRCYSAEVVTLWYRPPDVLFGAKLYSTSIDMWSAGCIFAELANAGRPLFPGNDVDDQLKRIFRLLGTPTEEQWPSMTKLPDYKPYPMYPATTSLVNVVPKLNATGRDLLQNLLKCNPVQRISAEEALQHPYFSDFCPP
# T2 sequence (Q15078 99-307 partner limits assumed): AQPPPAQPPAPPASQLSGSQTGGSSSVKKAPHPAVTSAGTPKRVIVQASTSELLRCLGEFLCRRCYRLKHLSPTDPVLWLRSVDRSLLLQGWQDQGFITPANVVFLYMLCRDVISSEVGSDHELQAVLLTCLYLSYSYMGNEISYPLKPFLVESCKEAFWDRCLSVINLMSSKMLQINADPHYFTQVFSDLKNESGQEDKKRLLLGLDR
# Summary of the method: (§1)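 LANCE Ultra TR-FRET: ULight-MBP peptide (68 nM) with ATP at Km, […], 60 min at 23° C. EDTA plus Eu-anti-phospho-MBP added, another 60 min, then 665/615 nm emission read. Compounds tested as 8-dose 4-fold DMSO dilutions.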
# [3] = biological target: T3, CDK1/Cyclin B (Homo sapiens, UniProt P06493); assay: Enzymatic assay for CDK1 (FRET based LANCE Ultra kinase assay); assay type: biochemical; details: read-out: CDK1 enzymatic activity (IC50 range)
# T3 construct: purchased Invitrogen PR4768C
# T3 sequence (P06493 whole entry): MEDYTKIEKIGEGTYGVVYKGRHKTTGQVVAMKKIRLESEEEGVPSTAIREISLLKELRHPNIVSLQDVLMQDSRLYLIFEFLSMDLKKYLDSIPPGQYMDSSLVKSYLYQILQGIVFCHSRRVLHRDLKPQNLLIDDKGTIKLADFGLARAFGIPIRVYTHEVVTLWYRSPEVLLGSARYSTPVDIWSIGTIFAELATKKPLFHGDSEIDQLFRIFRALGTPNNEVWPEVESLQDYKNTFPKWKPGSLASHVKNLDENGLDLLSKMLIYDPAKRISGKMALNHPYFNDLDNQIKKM
# T3 sequence (P14635 whole entry partner): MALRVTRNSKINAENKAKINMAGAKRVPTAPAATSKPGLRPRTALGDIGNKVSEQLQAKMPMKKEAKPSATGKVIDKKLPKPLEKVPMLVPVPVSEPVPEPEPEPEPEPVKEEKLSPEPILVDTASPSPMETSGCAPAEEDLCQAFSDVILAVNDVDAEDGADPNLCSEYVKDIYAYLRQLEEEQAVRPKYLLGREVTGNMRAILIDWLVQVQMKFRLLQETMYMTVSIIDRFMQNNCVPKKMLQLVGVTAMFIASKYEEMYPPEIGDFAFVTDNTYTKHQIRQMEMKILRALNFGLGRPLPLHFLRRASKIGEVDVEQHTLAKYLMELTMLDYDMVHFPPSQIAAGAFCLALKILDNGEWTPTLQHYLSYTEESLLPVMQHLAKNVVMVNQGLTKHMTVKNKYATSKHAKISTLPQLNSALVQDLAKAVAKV
# Summary of the method: as §1
# [4] = tested on: RPMI-8226; assay: Cellular RPMI-8226 viability assay (CellTiter-Glo, 72 hours); assay type: cell-based; details: Homo sapiens
# Protocol: (§2) All cell lines were routinely tested for mycoplasma.
# (§3) The effect of the CDK7 inhibitor to inhibit the growth of target cancer cells was evaluated through the 72 hours time period of viability assay. Briefly, the candidate cell line ware plated in 96 well plate at the following density of cells respectively. […] DMSO solvent without compound served as a control and final DMSO concentration less than 0.1%. After 72 hours of incubation at 37° C., 5% CO2 incubator, cells were analyzed for the viability using the CellTiter-Glo Luminescent Cell Viability Assay (Promega, Cat #G7570). All viability assays were performed in duplicate and Luminescence was read using an Envision (Perkin Elmer, USA). Data was analyzed using XLfit software.
# [5] = biological target: T4, CDK2/Cyclin A (Homo sapiens, UniProt P24941); assay: Enzymatic assay for CDK2 (FRET based LANCE Ultra kinase assay); assay type: biochemical; details: read-out: CDK2 enzymatic activity (IC50 range)
# T4 construct: purchased Invitrogen PV6290
# Summary of the method: as §1
# [6] = tested on: H460; assay: Cellular H460 viability assay (CellTiter-Glo, 72 hours); assay type: cell-based; details: Homo sapiens, NCI-H460
# Summary of the method: (§4)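 Luminescent ATP read-out (CellTiter-Glo) after 72 h compound exposure at 37 °C/5% CO2; duplicate wells; vehicle control DMSO <0.1% final; seeding density set per cell line.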
# [7] = tested on: MOLT-4; assay: Cellular MOLT-4 viability assay (CellTiter-Glo, 72 hours); assay type: cell-based; details: Homo sapiens, MOLT4 viability assay
# Protocol: as §2, §3
# [8] = tested on: HCT116; assay: Cellular HCT116 viability assay (CellTiter-Glo, 72 hours); assay type: cell-based; details: Homo sapiens, HCT-116
# Summary of the method: as §4
# [9] = tested on: MV4-11; assay: Cellular MV4-11 viability assay (CellTiter-Glo, 72 hours); assay type: cell-based; details: Homo sapiens
# Summary of the method: as §4
CDK1/CDK7: Selectivity of CDK7 inhibition over CDK1 inhibition [1],IC50 [1],IC50 [2],IC50 [3],IC50 [4],IC50 [5],IC50 [6],IC50 [7],IC50 [8],IC50 [9],Structure (SMILES),CDK2/CDK7: Selectivity of CDK7 inhibition over CDK2 inhibition [1],CDK5/CDK7: Selectivity of CDK7 inhibition over CDK5 inhibition [1]
A (A=greater than 200 fold),< 0.1 µM,0.1 to 1 µM,> 1 µM,< 1 µM,0.1 to 1 µM,–,–,–,–,CNC(=O)c1ccccc1CNc1nc(N2CCC(N)CC2)nc2c(C(C)C)cnn12 [Compound 19],"B (B=less than 200 fold, but greater than 20 fold)","B (B=less than 200 fold, but greater than 20 fold)"
A (A=greater than 200 fold),< 0.1 µM,0.1 to 1 µM,> 1 µM,< 1 µM,0.1 to 1 µM,< 1 µM,–,–,–,CC(=O)c1ccc2nn(-c3ccccc3CNc3nc(N4CCC(N)CC4)nc4c(C(C)C)cnn34)cc2c1 [Compound 127],"B (B=less than 200 fold, but greater than 20 fold)","B (B=less than 200 fold, but greater than 20 fold)"

# The remaining lines, values behind:
Structure (SMILES),CDK1/CDK7: Selectivity of CDK7 inhibition over CDK1 inhibition [1],IC50 [1],IC50 [2],IC50 [3],IC50 [4],IC50 [5],IC50 [6],IC50 [7],IC50 [8],IC50 [9],CDK2/CDK7: Selectivity of CDK7 inhibition over CDK2 inhibition [1],CDK5/CDK7: Selectivity of CDK7 inhibition over CDK5 inhibition [1]
CC(C)c1cnn2c(NCc3ccccc3-c3cc4ccccc4[nH]3)nc(N3CCCC(N)C3)nc12 (racemic) [Compound 125],A (A=greater than 200 fold),< 0.1 µM,> 1 µM,> 1 µM,1 to 10 µM,> 1 µM,–,–,–,–,"B (B=less than 200 fold, but greater than 20 fold)","B (B=less than 200 fold, but greater than 20 fold)"
CC(C)c1cnn2c(NCc3ccccc3-c3ccc4c(c3)CC(=O)N4)nc(N3CCC(N)CC3)nc12 [Compound 17],"B (B=less than 200 fold, but greater than 20 fold)",< 0.1 µM,0.1 to 1 µM,> 1 µM,1 to 10 µM,0.1 to 1 µM,1 to 10 µM,–,–,–,"B (B=less than 200 fold, but greater than 20 fold)",C (C=less than 20 fold)
CC(C)(C)c1cnn2c(NCc3ccccc3-n3cccn3)nc(N3CCC(N)CC3)nc12 [Compound 24],"B (B=less than 200 fold, but greater than 20 fold)",< 0.1 µM,< 0.1 µM,0.1 to 1 µM,–,0.1 to 1 µM,< 1 µM,1 to 10 µM,< 1 µM,–,"B (B=less than 200 fold, but greater than 20 fold)","B (B=less than 200 fold, but greater than 20 fold)"
CC(C)c1cnn2c(NCc3cccc(-n4cccn4)c3)nc(N3CCC(N)CC3)nc12 [Compound 47],"B (B=less than 200 fold, but greater than 20 fold)",< 0.1 µM,< 0.1 µM,0.1 to 1 µM,–,0.1 to 1 µM,< 1 µM,1 to 10 µM,< 1 µM,–,"B (B=less than 200 fold, but greater than 20 fold)",C (C=less than 20 fold)
CC(C)c1cnn2c(NCc3cccc(Oc4ccccc4)c3)nc(N3CCC(N)CC3)nc12 [Compound 51],"B (B=less than 200 fold, but greater than 20 fold)",< 0.1 µM,> 1 µM,> 1 µM,–,> 1 µM,1 to 10 µM,1 to 10 µM,1 to 10 µM,–,"B (B=less than 200 fold, but greater than 20 fold)","B (B=less than 200 fold, but greater than 20 fold)"
CC(C)c1cnn2c(NCc3ccccc3NC(=O)c3cccc(NC(=O)CCCN(C)C)c3)nc(N3CCC(N)CC3)nc12 [Compound 89],A (A=greater than 200 fold),< 0.1 µM,0.1 to 1 µM,> 1 µM,–,> 1 µM,–,1 to 10 µM,1 to 10 µM,< 1 µM,A (A=greater than 200 fold),"B (B=less than 200 fold, but greater than 20 fold)"
CC(C)c1cnn2c(NCc3cccc(-c4cc5ccccc5[nH]4)c3)nc(N3CCC(N)CC3)nc12 [Compound 118],"B (B=less than 200 fold, but greater than 20 fold)",< 0.1 µM,0.1 to 1 µM,> 1 µM,< 1 µM,0.1 to 1 µM,< 1 µM,–,–,–,"B (B=less than 200 fold, but greater than 20 fold)","B (B=less than 200 fold, but greater than 20 fold)"
CC(C)c1cnn2c(NCc3ccccc3-c3cc4cc([N+](=O)[O-])ccc4[nH]3)nc(N3CCC(N)CC3)nc12 [Compound 121],A (A=greater than 200 fold),< 0.1 µM,0.1 to 1 µM,> 1 µM,< 1 µM,0.1 to 1 µM,< 1 µM,–,–,–,"B (B=less than 200 fold, but greater than 20 fold)","B (B=less than 200 fold, but greater than 20 fold)"
CC(C)c1cnn2c(NCc3ccccc3-n3cc4cccc(NC(=O)CCCN(C)C)c4n3)nc(N3CCC(N)CC3)nc12 [Compound 126],A (A=greater than 200 fold),< 0.1 µM,0.1 to 1 µM,> 1 µM,< 1 µM,0.1 to 1 µM,< 1 µM,–,–,–,"B (B=less than 200 fold, but greater than 20 fold)","B (B=less than 200 fold, but greater than 20 fold)"
CC(C)c1cnn2c(NCc3ccccc3-c3cc4ccccc4[nH]3)nc(N3CCC[C@@H](N)C3)nc12 [Compound 131],"B (B=less than 200 fold, but greater than 20 fold)",< 0.1 µM,> 1 µM,> 1 µM,1 to 10 µM,> 1 µM,–,–,–,–,"B (B=less than 200 fold, but greater than 20 fold)","B (B=less than 200 fold, but greater than 20 fold)"
CC(C)c1cnn2c(NCc3ccccc3-n3cc4c(n3)CCC(=O)C4)nc(N3CCC(N)CC3)nc12 [Compound 132],A (A=greater than 200 fold),< 0.1 µM,0.1 to 1 µM,> 1 µM,1 to 10 µM,> 1 µM,1 to 10 µM,–,–,–,"B (B=less than 200 fold, but greater than 20 fold)","B (B=less than 200 fold, but greater than 20 fold)"
CC(C)c1cnn2c(NCc3ccccc3-n3cccn3)nc(-c3ccc(C(=O)N4CCC(N)CC4)cc3)nc12 [Compound 172],A (A=greater than 200 fold),< 0.1 µM,0.1 to 1 µM,> 1 µM,–,0.1 to 1 µM,1 to 10 µM,1 to 10 µM,1 to 10 µM,–,"B (B=less than 200 fold, but greater than 20 fold)","B (B=less than 200 fold, but greater than 20 fold)"
